Here are results for one compound from patent US20060204530A1, “Benzoyl peroxide compositions and methods of use” (JR CHEM, LLC, priority 2005, published 2006).

Molecules are shown by their SMILES.

The data set can be described thus: Solubility of benzoyl peroxide in the disclosed solvents. Format: physicochemical. The conditions noted are these: room temperature. The procedure: In embodiments, benzoyl peroxide can be added to the solvents to form a mixture at room temperature, e.g., at a temperature of 25 to about 27° C. Additionally, the benzoyl peroxide/solvent mixture also can be added to other ingredients to form desired products, e.g., emulsions, lotions, creams or gels at low temperatures. […] However the key difference between the disclosed prior art and the present compositions is that the benzoyl peroxide will actively go into solution at levels as high as 10% by weight of the total formulation. These solutions can offer new clear products of increased efficacy.

`O=C(OOC(=O)c1ccccc1)c1ccccc1` [benzoyl peroxide]: the “level at which benzoyl peroxide goes into solution” value is on record as ≤ 10 % by weight of the total formulation.
